Reference: patent publication US20260008818A1, “CYCLIC PEPTIDE OR SALT THEREOF, AND USES THEREOF” (FUJIFILM Corporation, priority 2023, published 2026)
Bridge positions count the residues as written; N and C are the ends. Ends that are not written are not given here. COCH2 = acetyl group that carries the bridge

Test system: Recombinant Human FGFR1 alpha (IIIc) Fc Chimera Protein
Test: Binding affinity of enzymatically synthesized cyclic peptide to FGFR by ELISA
Details: luminescence signal at reaction concentration 10 nmol/L, SEQ ID NO: 39 standardized to 1, enzyme synthesis product
Protocol: The binding affinity of the cyclic peptide to FGFR was evaluated using an ELISA method.
The binding affinity of the enzymatically synthesized cyclic peptide to FGFR was measured by evaluating the amount of the cyclic peptide bound to FGFR by ELISA.
First, 5 ng of Recombinant Human FGFR1 alpha (IIIc) Fc Chimera Protein CF (R&D systems, 658-FR-050) was immobilized in each well of a 96-well plate, and blocked with Pierce Protein-Free (PBS) Blocking Buffer (Thermo, 37572), and a cyclic peptide diluted with Can Get Signal Immunoreaction Enhancer Solution I (TOYOBO, NKB-101) was then added and reacted at room temperature for 3 hours. After washing with 0.05% Tween 20-containing phosphate buffered saline (PBS), an anti-Myc antibody (Cell Signaling, 14038S) diluted with Can Get Signal Immunoreaction Enhancer Solution II (TOYOBO, NKB-101) was added and reacted at room temperature for 2 hours. After washing with 0.05% Tween 20-containing PBS, SuperSignal ELISA Femto Substrate (Thermo, 37075) was added, and the luminescence amount was measured. The dose-response relationship was calculated from using the difference between the luminescence amount in the well in which FGFR was immobilized and the luminescence amount in the well in which FGFR was not immobilized, and the concentration of the cyclic peptide at the time of reaction, and the binding affinity to FGFR was evaluated according to the following evaluation criteria. The evaluation result preferably satisfies the evaluation criteria A, B, or C.
In a case where a value of a luminescence signal emitted by the cyclic peptide set forth in SEQ ID NO: 39 at a reaction concentration of 10 nmol/L is standardized to 1, evaluation criteria of the luminescence signal value emitted by the cyclic peptide at a reaction concentration of 10 nmol/L is as follows. • A: 0.7 or more • B: 0.5 or more and less than 0.7 • C: 0.1 or more and less than 0.5 • D: less than 0.1.

Evaluation result of binding affinity to FGFR | Substance
A (0.7 or more) | 333 (HCVYERLIFHGHIAPFWVK(COCH2)V; thioether 2-19 (inferred)) [compound 333]
C (0.1 or more and less than 0.5) | 206 (HCSYERLQFHGHEAPFRNK(COCH2)V; thioether 2-19 via Ac; not fully specified) [compound 206]
B (0.5 or more and less than 0.7) | 324 (HCTWERLIFLGHIAPFWVK(COCH2)V; thioether 2-19 (inferred)) [compound 324]
C (0.1 or more and less than 0.5) | 291 (HCSYERLQFHGHEAKFRVK(COCH2)V; thioether 2-19 (inferred)) [compound 291]
C (0.1 or more and less than 0.5) | 372 (CRLIFHGHEAPFWVK(COCH2)V; thioether 1-15) [compound 372]
A (0.7 or more) | 335 (HCSYERLIFRGHIAPFWVK(COCH2)V; thioether 2-19 (inferred)) [compound 335]
B (0.5 or more and less than 0.7) | 120 (HCSYGRLQFHGHEAPFRVK(COCH2)V; thioether 2-19 (inferred)) [compound 120]
A (0.7 or more) | 194 (HCSYERLQFHGHEAPFFVK(COCH2)V; thioether 2-19 via Ac) [compound 194]
C (0.1 or more and less than 0.5) | 135 (HCSYEPLQFHGHEAPFRVK(COCH2)V; thioether 2-19 (inferred)) [compound 135]
A (0.7 or more) | 72 (FCSYERLQFHGHEAPFRVK(COCH2)V; thioether 2-19 (inferred)) [compound 72]
C (0.1 or more and less than 0.5) | 344 (RCQPFVQLVFRSLLAPFLVK(COCH2)H; thioether 2-20) [compound 344]
B (0.5 or more and less than 0.7) | 239 (HK(COCH2)TWERLIFLGHIAPFLVCR; thioether 2-19 (inferred)) [compound 239]
C (0.1 or more and less than 0.5) | 102 (HCSSERLQFHGHEAPFRVK(COCH2)V; thioether 2-19 (inferred)) [compound 102]
B (0.5 or more and less than 0.7) | 115 (HCSYERLQFHGHEANFRVK(COCH2)V; thioether 2-19 (inferred)) [compound 115]
B (0.5 or more and less than 0.7) | 224 (HK(COCH2)SYERLQFHGHEAPFRVCV; thioether 2-19 (inferred)) [compound 224]
B (0.5 or more and less than 0.7) | 347 (PCVQQISPHPWGAPFWVVTSK(COCH2)F; thioether 2-21) [compound 347]
C (0.1 or more and less than 0.5) | 159 (HCSYERLQIHGHEAPFRVK(COCH2)V; thioether 2-19 (inferred)) [compound 159]
C (0.1 or more and less than 0.5) | 369 (HASYERCIFHGHEAPFWVK(COCH2)V; thioether 7-19) [compound 369]

The remaining lines, values behind:

Substance | Evaluation result of binding affinity to FGFR
211 (HCSYERLQFHGHEAPFRVK(COCH2)L; thioether 2-19 via Ac; not fully specified) [compound 211] | A (0.7 or more)
112 (HCSYERLQFHGWEAPFRVK(COCH2)V; thioether 2-19 (inferred)) [compound 112] | B (0.5 or more and less than 0.7)
66 (HCSYERLQFHGHEAPFRVK(COCH2)A; thioether 2-19 (inferred)) [compound 66] | A (0.7 or more)
119 (HCSYERLQFHGHEAPYRVK(COCH2)V; thioether 2-19 (inferred)) [compound 119] | C (0.1 or more and less than 0.5)
345 (QCYLPFWFYQKARLLFHYIK(COCH2)S; thioether 2-20) [compound 345] | C (0.1 or more and less than 0.5)
323 (HCTWERLIFLGHIAPFHVK(COCH2)R; thioether 2-19 (inferred)) [compound 323] | A (0.7 or more)
310 (YCTWERLIFLGHIAPFWVK(COCH2)R; thioether 2-19 (inferred)) [compound 310] | C (0.1 or more and less than 0.5)
62 (HCSYERLQFHGHAAPFRVK(COCH2)V; thioether 2-19 (inferred)) [compound 62] | A (0.7 or more)
55 (HCASYERLQFHGHEAPFRVK(COCH2)V; thioether 2-20 (inferred)) [compound 55] | C (0.1 or more and less than 0.5)
104 (HCSHERLQFHGHEAPFRVK(COCH2)V; thioether 2-19 (inferred)) [compound 104] | C (0.1 or more and less than 0.5)
352 (ICINRLSQGTHFAPFWLVEYK(COCH2)N; thioether 2-21) [compound 352] | B (0.5 or more and less than 0.7)
128 (HCSYNRLQFHGHEAPFRVK(COCH2)V; thioether 2-19 (inferred)) [compound 128] | B (0.5 or more and less than 0.7)
64 (HCSYERLQFHGHEAPFAVK(COCH2)V; thioether 2-19 (inferred)) [compound 64] | B (0.5 or more and less than 0.7)
325 (HCTWERLIFLGHIAPFWVK(COCH2)S; thioether 2-19 (inferred)) [compound 325] | B (0.5 or more and less than 0.7)
330 (HCSYERLVFHGHIAPFWVK(COCH2)V; thioether 2-19 (inferred)) [compound 330] | A (0.7 or more)
331 (HCSYERLIFHGHLAPFWVK(COCH2)V; thioether 2-19 (inferred)) [compound 331] | A (0.7 or more)

Substance | Evaluation result of binding affinity to FGFR
186 (HCSYERLQFHGHSAPFRVK(COCH2)V; thioether 2-19 via Ac) [compound 186] | A (0.7 or more)
237 (HK(COCH2)TWERLIFLGHLAPFWVCR; thioether 2-19 (inferred)) [compound 237] | B (0.5 or more and less than 0.7)
269 (VCYEQLVVWGHIAPFLTK(COCH2)H; thioether 2-18 (inferred)) [compound 269] | C (0.1 or more and less than 0.5)
366 (HCQFNIHPWGAPFLVK(COCH2)E; thioether 2-16) [compound 366] | C (0.1 or more and less than 0.5)
305 (HCSYERLQFHGHMAPFRVK(COCH2)V; thioether 2-19 (inferred)) [compound 305] | A (0.7 or more)
158 (HCSYERLQLHGHEAPFRVK(COCH2)V; thioether 2-19 (inferred)) [compound 158] | B (0.5 or more and less than 0.7)
334 (HCSYERLIFLGHIAPFWVK(COCH2)V; thioether 2-19 (inferred)) [compound 334] | B (0.5 or more and less than 0.7)
230 (HK(COCH2)QWERLIFLGHIAPFWVCR; thioether 2-19 (inferred)) [compound 230] | B (0.5 or more and less than 0.7)
336 (HCTYERLIFLGHIAPFWVK(COCH2)V; thioether 2-19 (inferred)) [compound 336] | B (0.5 or more and less than 0.7)
244 (NCWGWAYPIPFRK(COCH2)V; thioether 2-13 (inferred)) [compound 244] | C (0.1 or more and less than 0.5)
243 (LCRYVKLRVGLHIAPFLIK(COCH2)S; thioether 2-19 (inferred)) [compound 243] | C (0.1 or more and less than 0.5)
261 (QCQWNIYRHQWAPFWVIEK(COCH2)S; thioether 2-19 (inferred)) [compound 261] | C (0.1 or more and less than 0.5)
136 (HCSYELLQFHGHEAPFRVK(COCH2)V; thioether 2-19 (inferred)) [compound 136] | C (0.1 or more and less than 0.5)
176 (HCSYERLQFHGHGAPFRVK(COCH2)V; thioether 2-19 (inferred)) [compound 176] | C (0.1 or more and less than 0.5)
169 (HCSYERLQFWGHEAPFRVK(COCH2)V; thioether 2-19 (inferred)) [compound 169] | A (0.7 or more)
311 (RCTWERLIFLGHIAPFWVK(COCH2)R; thioether 2-19 (inferred)) [compound 311] | C (0.1 or more and less than 0.5)
